Experimental findings from publication PMC4752590, “Reciprocal effects of capsaicin and menthol on thermosensation through regulated activities of TRPV1 and TRPM8” (The Journal of Physiological Sciences : JPS, 2015) are described below.

Test [1] addresses T1, hTRPM8 (transient receptor potential melastatin 8) (Homo sapiens, UniProt Q7Z2W7).
T1 construct: gene TRPM8; Full-length
Description: whole-cell patch clamp in HEK293T; inhibition of […] menthol-evoked current. Format: cell-based.

In test [2] the target is T2, hTRPV1 (transient receptor potential vanilloid 1) (Homo sapiens, UniProt Q8NER1).
T2 construct: gene TRPV1; Full-length
The test is described as follows: whole-cell patch clamp in HEK293T; inhibition of […] capsaicin-evoked current. Format: cell-based. For orientation: Patch clamp records ionic current or voltage across a cell membrane.

T2 sequence (Q8NER1 whole entry): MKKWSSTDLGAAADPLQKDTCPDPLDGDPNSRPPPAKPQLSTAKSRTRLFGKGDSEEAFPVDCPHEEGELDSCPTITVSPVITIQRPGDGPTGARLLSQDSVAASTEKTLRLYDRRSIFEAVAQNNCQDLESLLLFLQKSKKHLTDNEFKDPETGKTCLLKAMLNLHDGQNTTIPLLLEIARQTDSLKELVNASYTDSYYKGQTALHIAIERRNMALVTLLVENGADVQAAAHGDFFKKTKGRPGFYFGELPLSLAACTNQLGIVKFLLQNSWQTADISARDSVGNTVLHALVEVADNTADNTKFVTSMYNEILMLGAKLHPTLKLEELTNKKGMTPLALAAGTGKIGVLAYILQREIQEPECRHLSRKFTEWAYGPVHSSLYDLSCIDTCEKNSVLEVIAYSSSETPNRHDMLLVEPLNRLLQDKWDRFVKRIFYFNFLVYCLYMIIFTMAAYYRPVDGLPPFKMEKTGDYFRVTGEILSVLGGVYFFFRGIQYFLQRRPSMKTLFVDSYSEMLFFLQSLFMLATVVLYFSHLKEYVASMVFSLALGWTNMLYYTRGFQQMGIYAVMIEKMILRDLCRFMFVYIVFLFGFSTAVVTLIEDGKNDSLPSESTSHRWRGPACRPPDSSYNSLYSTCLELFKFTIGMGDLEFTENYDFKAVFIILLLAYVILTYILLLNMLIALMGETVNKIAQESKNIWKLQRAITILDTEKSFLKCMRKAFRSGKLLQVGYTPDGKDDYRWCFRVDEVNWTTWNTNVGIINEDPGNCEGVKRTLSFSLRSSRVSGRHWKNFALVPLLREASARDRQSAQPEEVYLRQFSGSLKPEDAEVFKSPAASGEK
T1 sequence (Q7Z2W7 whole entry): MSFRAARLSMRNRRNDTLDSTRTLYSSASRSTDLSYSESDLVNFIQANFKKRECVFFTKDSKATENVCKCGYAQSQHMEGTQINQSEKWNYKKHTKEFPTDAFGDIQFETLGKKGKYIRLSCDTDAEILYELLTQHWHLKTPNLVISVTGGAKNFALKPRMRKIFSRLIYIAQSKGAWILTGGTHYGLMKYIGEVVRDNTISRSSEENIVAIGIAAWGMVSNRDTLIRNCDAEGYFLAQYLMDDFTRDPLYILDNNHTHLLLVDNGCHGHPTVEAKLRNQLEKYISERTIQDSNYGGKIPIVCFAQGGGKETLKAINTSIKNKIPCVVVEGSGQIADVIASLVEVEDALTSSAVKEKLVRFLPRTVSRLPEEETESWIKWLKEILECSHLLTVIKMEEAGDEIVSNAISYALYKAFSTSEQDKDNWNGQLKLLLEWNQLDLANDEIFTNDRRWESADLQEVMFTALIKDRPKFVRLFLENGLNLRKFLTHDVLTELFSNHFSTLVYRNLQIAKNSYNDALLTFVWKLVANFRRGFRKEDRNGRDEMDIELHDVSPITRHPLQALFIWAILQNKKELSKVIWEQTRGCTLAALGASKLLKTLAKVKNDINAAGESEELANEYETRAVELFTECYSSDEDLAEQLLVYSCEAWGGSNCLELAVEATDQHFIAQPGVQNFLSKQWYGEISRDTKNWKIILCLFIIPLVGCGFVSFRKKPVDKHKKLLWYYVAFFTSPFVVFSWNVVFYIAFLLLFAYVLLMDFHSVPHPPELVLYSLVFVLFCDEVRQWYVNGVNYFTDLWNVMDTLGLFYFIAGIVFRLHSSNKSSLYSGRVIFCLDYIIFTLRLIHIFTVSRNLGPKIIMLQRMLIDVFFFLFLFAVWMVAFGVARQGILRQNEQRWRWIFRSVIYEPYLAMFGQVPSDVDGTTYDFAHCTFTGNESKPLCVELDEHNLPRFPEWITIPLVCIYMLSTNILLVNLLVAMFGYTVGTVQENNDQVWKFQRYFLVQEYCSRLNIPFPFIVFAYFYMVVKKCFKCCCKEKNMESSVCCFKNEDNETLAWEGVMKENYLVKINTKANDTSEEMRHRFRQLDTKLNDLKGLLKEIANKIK

By IC50 is commonly meant the point on the concentration scale where inhibition reaches its midpoint. The low end stands for inhibition by little substance, the high end for a need for much substance. Compound `COc1cc(CNC(=O)CCCC/C=C/C(C)C)ccc1O` [capsaicin] displayed an IC50 in test [1] of 39.9 ± 6.4 µM.

`CC1CCC(C(C)C)C(O)C1` (centres unmarked) [menthol] displayed a half-inhibitory concentration (IC50) in test [2] of 1200 ± 200 µM.
